Data: paper PMC5166496 (International Journal of Biological Sciences, 2016)

Molecular target: T1, SIRT1 (Homo sapiens, UniProt Q96EB6)
T1 sequence (Q96EB6 2-747): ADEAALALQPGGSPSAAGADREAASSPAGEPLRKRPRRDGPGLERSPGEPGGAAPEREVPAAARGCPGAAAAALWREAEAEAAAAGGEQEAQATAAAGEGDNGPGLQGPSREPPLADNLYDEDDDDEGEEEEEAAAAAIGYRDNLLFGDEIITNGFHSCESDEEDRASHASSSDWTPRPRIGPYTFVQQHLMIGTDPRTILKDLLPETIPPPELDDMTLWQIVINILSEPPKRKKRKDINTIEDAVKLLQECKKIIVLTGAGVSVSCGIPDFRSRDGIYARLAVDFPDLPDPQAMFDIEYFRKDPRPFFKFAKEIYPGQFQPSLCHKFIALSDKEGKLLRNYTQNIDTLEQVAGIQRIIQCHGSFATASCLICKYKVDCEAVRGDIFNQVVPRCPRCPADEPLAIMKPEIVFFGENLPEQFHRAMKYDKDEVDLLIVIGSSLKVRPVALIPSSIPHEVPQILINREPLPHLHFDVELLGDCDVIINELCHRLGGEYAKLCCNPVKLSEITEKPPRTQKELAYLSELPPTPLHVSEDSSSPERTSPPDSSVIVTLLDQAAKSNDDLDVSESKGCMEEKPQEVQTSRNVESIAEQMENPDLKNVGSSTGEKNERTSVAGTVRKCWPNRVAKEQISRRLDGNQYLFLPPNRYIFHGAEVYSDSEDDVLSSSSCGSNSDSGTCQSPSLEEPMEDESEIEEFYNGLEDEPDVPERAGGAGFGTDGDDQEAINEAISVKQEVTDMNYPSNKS
Experiment: SensoLyte […] fluorimetric SIRT1 deacetylase activity assay kit
Type: biochemical

Q: How did the IC50 turn out when `CC(C)(C)c1cc(C=C2C(=O)NC(=S)NC2=O)cc(C(C)(C)C)c1O` [MHY2256, 5-(3,5-Di-tert-butyl-4-hydroxybenzylidene)-2-thioxodihydropyrimidine-4,6(1H,5H)-dione] was run?
A: 270 µM
